The source of these data is US20210290153A1, “DRUG DELIVERY DEVICES HAVING ADSORBED MEDICATION ADHERENCE MARKERS THEREON, PACKAGING INCLUDING THE SAME AND METHODS OF FORMING THE SAME” (Xhale, Inc., priority 2018, published 2021).

For the data set the following is noted: maltodextrin-coated vitamin tablet sealed approximately one week with sorbent pad loaded with approximately 200 mg 2-butanol; ingested; breath at approximately 10 minutes after ingestion. The protocol:
Referring to FIG. 3, a vitamin tablet was dipped into a maltodextrin/water solution and the tablet was allowed to dry. A tiny sorbent pad loaded with approximately 200 mg of 2-butanol was added to the bottom of a tiny plastic vial to simulate a blister cavity. The dry coated tablet was then added to the vial and sealed via a screw top. After approximately one week, the vial was opened and the tablet was ingested by an individual.

Take `CCC(C)O` (stereo not shown) [2-butanol]: the “2-butanone, a metabolite of 2-butanol, detected in the individual's breath” value is reported as “significant quantity”.
